Data on 22 compounds can be found in patent publication US9029370B2, “Substituted benzamide derivatives” (Hoffmann-La Roche Inc., priority 2011, dated 2015).

In one test the target is rat TAAR1 (Rattus norvegicus (Rat), UniProt Q923Y9). The experiment in a line: Radioligand binding assay on rat TAAR1. The conditions noted are these: rat TAAR1, HEK-293 membranes; second value of the pair (line below); read-out: Ki (μM) mouse/rat. How it is done:
(§1) For the construction of expression plasmids the coding sequences of human, rat and mouse TAAR 1 were amplified from genomic DNA essentially as described by Lindemann et al.. The Expand High Fidelity PCR System (Roche Diagnostics) was used with 1.5 mM Mg^2+ and purified PCR products were cloned into pCR2.1-TOPO cloning vector (Invitrogen) following the instructions of the manufacturer. PCR products were subcloned into the pIRESneo2 vector (BD Clontech, Palo Alto, Calif.), and expression vectors were sequence verified before introduction in cell lines.
(§2) HEK293 cells (ATCC # CRL-1573) were cultured essentially as described by Lindemann et al. (2005). For the generation of stably transfected cell lines HEK293 cells were transfected with the pIRESneo2 expression plasmids containing the TAAR coding sequences (described above) with Lipofectamine 2000 (Invitrogen) according to the instructions of the manufacturer, and 24 hrs post transfection the culture medium was supplemented with 1 mg/ml G418 (Sigma, Buchs, Switzerland). After a culture period of about 10 d clones were isolated, expanded and tested for responsiveness to trace amines (all compounds purchased from Sigma) with the cAMP Biotrak Enzyme immunoassay (EIA) System (Amersham) following the non-acetylation EIA procedure provided by the manufacturer.
Radioligand Binding Assay on Rat TAAR1
(§3) Membrane Preparation and Radioligand Binding.
(§4) HEK-293 cells stably expressing rat TAAR1 were maintained at 37° C. and 5% CO2 in DMEM high glucose medium, containing fetal calf serum (10%, heat inactivated for 30 min at 56° C.), penicillin/streptomycin (1%), and 375 μg/ml geneticin (Gibco). Cells were released from culture flasks using trypsin/EDTA, harvested, washed twice with ice-cold PBS (without Ca^2+ and Mg^2+), pelleted at 1′000 rpm for 5 min at 4° C., frozen and stored at −80° C. […] The homogenate was centrifuged at 48′000×g for 30 min at 4° C. Subsequently, the supernatant was removed and discarded, and the pellet resuspended in 20 ml HEPES-NaOH (20 mM, pH 7.4) containing 0.1 mM EDTA using the Polytron (20 s at 14′000 rpm). This procedure was repeated and the final pellet resuspended in HEPES-NaOH containing 0.1 mM EDTA and homogenized using the Polytron. Typically, aliquots of 2 ml membrane portions were stored at −80° C. With each new membrane batch the dissociation constant (Kd) was determined via a saturation curve. […] Nonspecific binding was defined as the amount of ^3[H]-(S)-4-[(ethyl-phenyl-amino)-methyl]-4,5-dihydro-oxazol-2-ylamine bound in the presence of 10 μM unlabeled ligand. All compounds were tested at a broad range of concentrations (10 pM to 10 μM) in duplicates. […] The 96 deep well plates were incubated for 1 hr at 4° C. Incubations were terminated by rapid filtration through Unifilter-96 plates (Packard Instrument Company) and glass filters GF/C (Perkin Elmer) presoaked for 1 hr in polyethylenimine (0.3%) and washed 3 times with 1 ml of cold binding buffer. After addition of 45 μl of Microscint 40 (PerkinElmer) the Unifilter-96 plate was sealed and after 1 hr the ratioactivity counted using a TopCount Microplate Scintillation Counter (Packard Instrument Company).

For a further test, the target named is mouse TAAR1 (Mus musculus (Mouse), UniProt Q923Y8). The experiment in a line: Radioligand binding assay on mouse TAAR1. The note with it: mouse TAAR1, HEK-293 membranes; first value of the pair (before the slash); read-out: Ki (μM) mouse/rat. How it is done:
as §1, §2
Radioligand Binding Assay on Mouse TAAR1
as §3
as §4, with “expressing mouse” for “expressing rat”

Structures can show the parent of a compound that is named as a salt.

rat TAAR1, sequence (Q923Y9 whole entry): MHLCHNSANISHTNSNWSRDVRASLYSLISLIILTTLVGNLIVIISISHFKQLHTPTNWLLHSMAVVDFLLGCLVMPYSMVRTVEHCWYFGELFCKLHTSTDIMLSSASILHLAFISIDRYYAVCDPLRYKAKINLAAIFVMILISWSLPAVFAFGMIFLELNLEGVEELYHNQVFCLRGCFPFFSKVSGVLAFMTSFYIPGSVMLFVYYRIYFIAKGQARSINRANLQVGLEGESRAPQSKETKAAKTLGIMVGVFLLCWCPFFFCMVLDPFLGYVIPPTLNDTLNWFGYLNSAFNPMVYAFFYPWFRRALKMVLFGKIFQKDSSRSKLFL
mouse TAAR1, sequence (Q923Y8 whole entry): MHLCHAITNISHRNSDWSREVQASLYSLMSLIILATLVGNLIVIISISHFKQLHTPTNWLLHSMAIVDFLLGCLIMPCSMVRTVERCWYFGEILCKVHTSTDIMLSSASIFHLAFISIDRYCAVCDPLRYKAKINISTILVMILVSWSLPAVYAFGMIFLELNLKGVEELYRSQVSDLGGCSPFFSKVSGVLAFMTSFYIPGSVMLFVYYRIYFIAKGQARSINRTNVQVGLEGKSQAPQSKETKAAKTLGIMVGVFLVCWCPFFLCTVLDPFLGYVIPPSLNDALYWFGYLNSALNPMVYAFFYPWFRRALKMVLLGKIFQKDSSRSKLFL

Turning to `COc1ccc(C#N)cc1NC(=O)Nc1ccc([C@H]2CNCCO2)cc1Br` [Example 58, 1-((S)-2-Bromo-4-morpholin-2-yl-phenyl)-3-(5-cyano-2-methoxy-phenyl)-urea], the Ki on rat TAAR1 came out at 0.0161 µM; on mouse TAAR1 it was 0.0038 µM.
As for `N#Cc1cc(F)cc(NC(=O)Nc2ccc([C@@H]3CNCCO3)cc2F)c1` [Example 59, 1-(3-Cyano-5-fluoro-phenyl)-3-((R)-2-fluoro-4-morpholin-2-yl-phenyl)-urea], the figures for the Ki on rat TAAR1 and on mouse TAAR1 were 0.001 µM and 0.0018 µM, respectively.
For `N#Cc1ccc(OC(F)F)c(NC(=O)Nc2ccc([C@@H]3CNCCO3)cc2Br)c1` [Example 60, 1-((R)-2-Bromo-4-morpholin-2-yl-phenyl)-3-(5-cyano-2-difluoromethoxy-phenyl)-urea] the same measures were 0.001 µM and 0.0008 µM.
On to `N#Cc1ccc(OC(F)F)c(NC(=O)Nc2ccc([C@H]3CNCCO3)cc2Br)c1` [Example 61, 1-((S)-2-Bromo-4-morpholin-2-yl-phenyl)-3-(5-cyano-2-difluoromethoxy-phenyl)-urea], for which the results for the Ki at rat TAAR1 and on mouse TAAR1 were 0.0025 µM and 0.0018 µM, respectively.
For `N#Cc1cccc(NC(=O)Nc2ccc([C@@H]3CNCCO3)cc2F)c1F` [Example 62, (R)-1-(3-Cyano-2-fluorophenyl)-3-(2-fluoro-4-(morpholin-2-yl)phenyl)urea] the same measures were 0.0028 µM and 0.0031 µM.
Consider `N#Cc1cc(NC(=O)Nc2ccc([C@@H]3CNCCO3)cc2F)ccc1F` [Example 63, (R)-1-(3-Cyano-4-fluorophenyl)-3-(2-fluoro-4-(morpholin-2-yl)phenyl)urea], for which the values for the Ki on rat TAAR1 and at mouse TAAR1 were 0.0007 µM and 0.0014 µM, respectively.
Turning to `O=C(Nc1ccc(Cl)cn1)Nc1ccc([C@H]2CNCCO2)cc1Cl` [Example 64, (S)-1-(2-Chloro-4-(morpholin-2-yl)phenyl)-3-(5-chloropyridin-2-yl)urea], the Ki at rat TAAR1 stood at 0.003 µM; on mouse TAAR1, 0.0015 µM.
For `N#Cc1ccc(NC(=O)Nc2ccc([C@@H]3CNCCO3)cc2Br)cn1` [Example 65, (R)-1-(2-bromo-4-(morpholin-2-yl)phenyl)-3-(6-cyanopyridin-3-yl)urea] the same measures were 0.0218 µM and 0.0037 µM.
With `N#Cc1ccc(NC(=O)Nc2ccc([C@H]3CNCCO3)cc2Br)cn1` [Example 66, (S)-1-(2-bromo-4-(morpholin-2-yl)phenyl)-3-(6-cyanopyridin-3-yl)urea], the results for the Ki on rat TAAR1 and on mouse TAAR1 were 0.0161 µM and 0.0033 µM, respectively.
For `O=C(Nc1cnc(C(F)(F)F)nc1)Nc1ccc([C@H]2CNCCO2)cc1Br` [Example 69, 1-((S)-2-Bromo-4-morpholin-2-yl-phenyl)-3-(2-trifluoromethyl-pyrimidin-5-yl)-urea], in that order: 0.018 µM and 0.0086 µM.
On to `O=C(Nc1cnc(C(F)(F)F)nc1)Nc1ccc([C@@H]2CNCCO2)cc1Br` [Example 70, 1-((R)-2-Bromo-4-morpholin-2-yl-phenyl)-3-(2-trifluoromethyl-pyrimidin-5-yl)-urea], for which the Ki at rat TAAR1 turned out to be 0.0103 µM; at mouse TAAR1 it was 0.0056 µM.
For `N#Cc1ccc(OC(F)F)c(NC(=O)Nc2ccc([C@H]3CNCCO3)cc2F)c1` [Example 71, 1-(5-Cyano-2-difluoromethoxy-phenyl)-3-((S)-2-fluoro-4-morpholin-2-yl-phenyl)-urea hydrochloride], in that order: 0.0012 µM and 0.0018 µM.
For `N#Cc1ccc(OC(F)F)c(NC(=O)Nc2ccc([C@@H]3CNCCO3)cc2F)c1` [Example 72, 1-(5-Cyano-2-difluoromethoxy-phenyl)-3-((R)-2-fluoro-4-morpholin-2-yl-phenyl)-urea hydrochloride] the same measures were 0.001 µM and 0.0019 µM.
For `O=C(Nc1ccc([C@H]2CNCCO2)cc1F)c1cnn(-c2cccc(OC(F)F)c2)c1` [Example 75, (S)-1-(3-(Difluoromethoxy)phenyl)-N-(2-fluoro-4-(morpholin-2-yl)phenyl)-1H-pyrazole-4-carboxamide] the same measures were 0.0011 µM and 0.0014 µM.
For `O=C(Nc1ccc([C@H]2CNCCO2)cc1F)c1cnn(-c2ccc(OC(F)F)cc2)c1` [Example 76, (S)-1-(4-(Difluoromethoxy)phenyl)-N-(2-fluoro-4-(morpholin-2-yl)phenyl)-1H-pyrazole-4-carboxamide], the results for the Ki at rat TAAR1 and at mouse TAAR1 were 0.0018 µM and 0.0016 µM, respectively.
For `O=C(NCc1cccc(OC(F)F)c1)Nc1ccc([C@@H]2CNCCO2)cc1F` [Example 77, (R)-1-(3-(Difluoromethoxy)benzyl)-3-(2-fluoro-4-(morpholin-2-yl)phenyl)urea] the same measures were 0.0064 µM and 0.001 µM.
For `O=C(NCc1cccc(OC(F)F)c1)Nc1ccc([C@H]2CNCCO2)cc1F` [Example 78, (S)-1-(3-(Difluoromethoxy)benzyl)-3-(2-fluoro-4-(morpholin-2-yl)phenyl)urea], in that order: 0.0039 µM and 0.0012 µM.
For `N#Cc1ccnc(C(=O)Nc2ccc([C@H]3CNCCO3)cc2F)c1` [Example 79, (S)-4-Cyano-N-(2-fluoro-4-(morpholin-2-yl)phenyl)picolinamide hydrochloride], in that order: 0.196 µM and 0.0022 µM.
As for `O=C(Nc1ccc([C@H]2CNCCO2)cc1F)c1cnn(-c2ccc3c(c2)OC(F)(F)O3)c1` [Example 82, (S)-1-(2,2-Difluorobenzo[d][1,3]dioxol-5-yl)-N-(2-fluoro-4-(morpholin-2-yl)phenyl)-1H-pyrazole-4-carboxamide], the Ki on rat TAAR1 came out at 0.0016 µM; at mouse TAAR1, 0.0013 µM.
Consider `O=C(Nc1ccc([C@@H]2CNCCO2)c(F)c1)c1ccnc(C(F)(F)F)c1` [Example 83, (R)—N-(3-Fluoro-4-(morpholin-2-yl)phenyl)-2-(trifluoromethyl)isonicotinamide hydrochloride], for which the Ki at rat TAAR1 was 0.0075 µM; on mouse TAAR1, 0.006 µM.
For `CCOc1cc(C(=O)Nc2ccc([C@@H]3CNCCO3)c(F)c2)ccn1` [Example 84, (R)-2-Ethoxy-N-(3-fluoro-4-(morpholin-2-yl)phenyl)isonicotinamide hydrochloride] the same measures were 0.0047 µM and 0.0036 µM.
In the case of `CCOc1ccc(C(=O)Nc2ccc([C@@H]3CNCCO3)c(F)c2)cn1` [Example 85, (R)-6-Ethoxy-N-(3-fluoro-4-(morpholin-2-yl)phenyl)nicotinamide hydrochloride], the values for the Ki on rat TAAR1 and at mouse TAAR1 were 0.0067 µM and 0.0033 µM, respectively.
